# Results taken from patent US11214803B2, “Modulators of YAP1 expression” (Ionis Pharmaceuticals, Inc., priority 2019, dated 2022).
# Strand notation (5' to 3'): a small letter for the sugar, then the base; units joined by * are phosphorothioate-linked, units joined directly phosphodiester-linked; [ ] holds rarer units or linkages, { } end groups; capitals alone tell only the bases. k = constrained ethyl (cEt); [5mC] = 5-methylcytosine; d = 2'-deoxy (DNA)
# System: Yap1 mRNA
# Test: Antisense inhibition of human Yap1 in A-431 cells by cEt gapmers, single dose (Example 2, RTS4814)
# Format: cell-based
# Conditions: Table 18; A-431 cells, 5,000 cells per well, free uptake, 2,000 nM modified oligonucleotide, approx. 48 hours; RTS4814; normalized to RIBOGREEN; Yap1 mRNA as percent of untreated control
# Outline: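 Yap1 mRNA levels, by real-time RT-PCR (RTS4814) and corrected for total RNA via RIBOGREEN, are given as percent of untreated cells. Gapmers (16-mer, cEt wings, phosphorothioate, 5-methylC) were delivered without transfection at 2,000 nM to A-431 cells for about 48 hours.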
row,Substance,YAP1 (% UTC)
1,1075460 (antisense kA*kA*kT*dA*dA*d[5mC]*d[5mC]*dA*dA*dG*dG*dA*dT*kA*kG*kT) [Compound 1075460],30
2,1075492 (antisense kG*k[5mC]*kT*dA*dA*dA*dA*dT*dG*dA*dT*dA*d[5mC]*kT*kT*k[5mC]) [Compound 1075492],29
3,1075524 (kT*kA*kA*dT*dT*dA*dA*dG*dG*dG*d[5mC]*d[5mC]*d[5mC]*kA*k[5mC]*kA; antisense) [Compound 1075524],71

# Same assay, conditions: Table 19; A-431 cells, 5,000 cells per well, free uptake, 2,000 nM modified oligonucleotide, approx. 48 hours; RTS4814; normalized to RIBOGREEN; Yap1 mRNA as percent of untreated control
row,Substance,YAP1 (% UTC)
1,1075461 (antisense k[5mC]*kT*kA*dA*dA*dT*dA*dA*d[5mC]*d[5mC]*dA*dA*dG*kG*kA*kT) [Compound 1075461],64
2,1075493 (antisense kA*kG*kA*d[5mC]*dA*dA*dG*dG*dG*dA*dT*dG*d[5mC]*kT*kA*kA) [Compound 1075493],67
3,1075525 (kT*kT*kA*dA*dT*dT*dA*dA*dG*dG*dG*d[5mC]*d[5mC]*k[5mC]*kA*k[5mC]; antisense) [Compound 1075525],130

# Same assay, conditions: Table 20; Yap1 mRNA, percent of untreated control; 3-10-3 cEt gapmers targeting SEQ ID NO.: 1 and 2
row,Substance,YAP1 (% UTC)
1,1075430 (antisense k[5mC]*kT*kT*dA*dA*d[5mC]*dT*dA*dA*d[5mC]*dT*dT*dG*kA*k[5mC]*k[5mC]) [Compound 1075430],96
2,1075462 (antisense kG*kT*kT*dT*dA*dT*dA*dG*dA*d[5mC]*dA*dA*dG*kT*k[5mC]*kA) [Compound 1075462],15
3,1075494 (antisense kT*k[5mC]*kT*d[5mC]*dA*dA*d[5mC]*dA*dA*dT*dT*dT*dG*k[5mC]*kT*kA) [Compound 1075494],47
4,1075526 (kT*kT*kT*dA*dA*dT*dT*dA*dA*dG*dG*dG*d[5mC]*k[5mC]*k[5mC]*kA; antisense) [Compound 1075526],110

# Same assay, conditions: Table 21; Yap1 mRNA, percent of untreated control; 3-10-3 cEt gapmers targeting SEQ ID NO.: 1 and 2
row,Substance,YAP1 (% UTC)
1,1075431 (antisense kT*kA*kA*d[5mC]*dT*dA*dA*dA*d[5mC]*dT*dG*dA*dT*kT*k[5mC]*k[5mC]) [Compound 1075431],74
2,1075463 (antisense k[5mC]*kT*kT*dA*dA*dT*d[5mC]*d[5mC]*dA*dA*dA*dG*d[5mC]*kT*kT*k[5mC]) [Compound 1075463],34
3,1075495 (antisense k[5mC]*kT*kT*dA*dA*dT*dT*dG*dG*dT*dA*dA*d[5mC]*kT*kG*kA) [Compound 1075495],19
4,1075527 (kA*kT*kT*dT*dA*dA*dT*dT*dA*dA*dG*dG*dG*k[5mC]*k[5mC]*k[5mC]; antisense) [Compound 1075527],82

# Same assay, conditions: Table 22; Yap1 mRNA as percent of untreated control; 3-10-3 cEt gapmers; single dose
row,Substance,YAP1 (% UTC)
1,1075432 (antisense k[5mC]*kT*kA*dA*d[5mC]*dT*dA*dA*dA*d[5mC]*dT*dG*dA*kT*kT*k[5mC]) [Compound 1075432],121
2,1075464 (antisense k[5mC]*k[5mC]*kA*d[5mC]*dT*dA*dA*dA*d[5mC]*d[5mC]*dA*d[5mC]*d[5mC]*kT*kA*kA) [Compound 1075464],77
3,1075496 (antisense kT*kT*kA*dT*dA*dT*dA*dA*dT*dG*d[5mC]*dA*dG*kG*k[5mC]*kT) [Compound 1075496],22
4,1075528 (kA*kT*k[5mC]*dG*dA*dA*dG*dG*dG*d[5mC]*dA*dA*dA*k[5mC]*kT*k[5mC]; antisense) [Compound 1075528],42

# Same assay, conditions: Table 23; Yap1 mRNA as percent of untreated control; 3-10-3 cEt gapmers; single dose
row,Substance,YAP1 (% UTC)
1,1075433 (antisense kT*kT*kA*dA*d[5mC]*dT*dA*dA*d[5mC]*dT*dA*dA*dA*k[5mC]*kT*kG) [Compound 1075433],124
2,1075465 (antisense kG*kA*kT*dT*dT*dA*dT*dT*dG*dA*dA*d[5mC]*dT*kG*kA*kG) [Compound 1075465],7
3,1075497 (kA*kT*kT*dA*dT*dA*dT*dA*dA*dT*dG*d[5mC]*dA*kG*kG*k[5mC]; antisense) [Compound 1075497],14
4,1075529 (kA*kA*kA*dT*d[5mC]*dG*dA*dA*dG*dG*dG*d[5mC]*dA*kA*kA*k[5mC]; antisense) [Compound 1075529],84

# Same assay, conditions: Table 24; Yap1 mRNA as percent of untreated control; 3-10-3 cEt gapmers targeting SEQ ID NO.: 1, and 2
row,Substance,YAP1 (% UTC)
1,1075434 (antisense kG*kT*kA*dA*dA*dA*dG*dA*dG*dG*dT*dG*d[5mC]*kA*kT*k[5mC]) [Compound 1075434],96
2,1075466 (antisense kT*k[5mC]*k[5mC]*dA*dA*dA*dA*dA*d[5mC]*d[5mC]*dA*dT*d[5mC]*kA*kG*kT) [Compound 1075466],28
3,1075498 (k[5mC]*kA*kT*dT*dA*dT*dA*dT*dA*dA*dT*dG*d[5mC]*kA*kG*kG; antisense) [Compound 1075498],9
4,1075530 (kG*kA*kA*dA*dT*d[5mC]*dG*dA*dA*dG*dG*dG*d[5mC]*kA*kA*kA; antisense) [Compound 1075530],30

# Same assay, conditions: Table 25; Yap1 mRNA as percent of untreated control; 3-10-3 cEt gapmers targeting SEQ ID NO.: 1, and 2
row,Substance,YAP1 (% UTC)
1,1075435 (antisense k[5mC]*kT*kT*dA*dA*dA*d[5mC]*dG*dA*dT*dA*dA*dA*kG*kT*kA) [Compound 1075435],93
2,1075467 (antisense k[5mC]*kA*kT*dT*dA*dA*dT*dG*d[5mC]*d[5mC]*dA*dT*d[5mC]*k[5mC]*kA*kA) [Compound 1075467],60
3,1075499 (kG*k[5mC]*kT*dA*dA*dA*dA*dA*dA*dT*dG*dA*dG*kT*kA*kG; antisense) [Compound 1075499],99
4,1075531 (k[5mC]*kT*kT*dA*dA*dT*dA*dG*dT*dT*dT*dA*dA*k[5mC]*k[5mC]*kT; antisense) [Compound 1075531],66

# Same assay, conditions: Table 32; Yap1 mRNA, percent of untreated control; 3-10-3 cEt gapmers targeting SEQ ID NO.: 1, and 2
row,Substance,YAP1 (% UTC)
1,1075442 (antisense kT*kA*kT*dT*dA*dG*dT*dT*d[5mC]*dT*dA*d[5mC]*dG*kA*kT*kT) [compound 1075442],71
2,1075474 (kT*kT*kT*dA*dA*dT*dA*dG*dG*d[5mC]*dT*d[5mC]*dT*kA*kT*k[5mC]; antisense) [compound 1075474],68
3,1075506 (k[5mC]*kA*kT*dA*dA*dA*dG*dG*dT*dG*dA*d[5mC]*dA*kG*k[5mC]*k[5mC]; antisense) [compound 1075506],66
4,1075538 (kG*kA*kA*dT*dT*dG*dG*dA*dA*d[5mC]*dA*d[5mC]*d[5mC]*kT*k[5mC]*kA; antisense) [compound 1075538],66

# Same assay, conditions: Table 33; Yap1 mRNA, percent of untreated control; 3-10-3 cEt gapmers targeting SEQ ID NO.: 1, and 2
row,Substance,YAP1 (% UTC)
1,1075443 (antisense kG*kA*kT*dT*dA*dA*d[5mC]*dA*dG*dA*dG*d[5mC]*dT*kA*kG*kA) [compound 1075443],29
2,1075475 (kT*kA*kG*d[5mC]*dA*dA*d[5mC]*dA*d[5mC]*dA*dT*dG*dA*kA*kG*kA; antisense) [compound 1075475],64
3,1075507 (kG*kT*kA*d[5mC]*dA*dA*d[5mC]*d[5mC]*dT*dA*dG*dT*dG*kA*kT*kA; antisense) [compound 1075507],82

# Same assay, conditions: Yap1 mRNA as percent of untreated control; A-431 cells; 3-10-3 cEt gapmers targeting SEQ ID NO.: 1, and 2; Table 30
row,Substance,YAP1 (% UTC)
1,1075440 (antisense kA*kA*kA*dT*dT*dA*dT*dT*dA*dG*dT*dT*dG*kT*k[5mC]*kG) [compound 1075440],28
2,1075472 (kG*kA*kT*dT*dA*dT*dA*dG*dT*dT*dA*dA*dA*k[5mC]*kA*kG; antisense) [compound 1075472],92
3,1075504 (k[5mC]*kT*kT*dA*dA*dA*dT*dG*dA*dG*dA*dG*dA*kA*k[5mC]*k[5mC]; antisense) [compound 1075504],71
4,1075536 (kT*kT*kA*dA*dT*dT*dA*d[5mC]*d[5mC]*d[5mC]*dA*dA*dG*kG*kA*k[5mC]; antisense) [compound 1075536],55

# Same assay, conditions: Yap1 mRNA as percent of untreated control; A-431 cells; 3-10-3 cEt gapmers targeting SEQ ID NO.: 1, and 2; Table 31
row,Substance,YAP1 (% UTC)
1,1075441 (antisense kG*kA*kA*dT*dT*dA*dA*dA*dG*d[5mC]*dA*dG*dT*kG*k[5mC]*k[5mC]) [compound 1075441],24
2,1075473 (kA*kG*kT*dT*dA*dT*dA*dA*d[5mC]*dT*dG*dT*dA*k[5mC]*kT*kA; antisense) [compound 1075473],89
3,1075505 (kG*k[5mC]*kT*dA*dA*dA*dT*dT*dA*d[5mC]*dA*dG*dA*kG*kG*kT; antisense) [compound 1075505],18
4,1075537 (k[5mC]*kT*kT*dT*dA*dA*dT*dT*dA*d[5mC]*d[5mC]*d[5mC]*dA*kA*kG*kG; antisense) [compound 1075537],82
